Like-named read-outs stand apart in the source and are kept apart here.
Assays:
[1] = tested on: gram-negative non-lactose fermenting bacteria; test: Gram-negative non-lactose fermenting bacteria on MacConkey agar, raw milk under CO2 pressure (Example 1); format: cell-based; details: 6.1° C., 4 days
Experimental: (§1) Raw milk from the T&R Center was monitored for changes in aerobic bacteria, gram-negative bacteria and total Lactobacillus spp. as follows: CO2 pressures of 0 (control), 68, 172, 344, 516 and 689 kPa, at 6.1° C. for 4-days. SPC, gram-negative bacteria and total Lactobacillus spp. were enumerated before (day 0) and after (day 4) treatment. Gram negative bacteria were enumerated on MacConkey Agar (Difco Manual, Becton Dickinson & Co., Sparks, Md.), a selective and differential media which can be used to discriminate between lactose fermenting and non-lactose fermenting gram-negative bacteria. Use of this media allows a one-step method of obtaining estimates of both coliform and non-coliform gram negative bacteria. Coliform bacteria may include species of Escherichia, Klebsiella and Enterobacter, potential pathogens and/or spoilage organisms. Non-coliform gram negative bacteria may include spoilage organisms such as pseudomonads or potential pathogens such as Salmonella spp. or Shigella spp. […]
(§2) For all microbiological assays, milk sample aliquots of 1 ml were used in dilution series. […] Representative and distinctive suspect colonies were gram stained, and confirmed gram positive bacilli colonies were counted as an estimate of total Lactobacillus spp.

Lactobacillus spp. [2] = test: Total Lactobacillus spp. on acidified MRS agar, raw milk under CO2 pressure (Example 1); format: cell-based; details: current study
Experimental: as §1, §2

[3] = pH of raw milk after CO2 pressure treatment (Example 1); format: physicochemical; details: for pH after treatment (6.6 before treatment): 6.1° C., 4 days; for pH of milk samples: 10° C.
Experimental: The pH of the treated and control milk samples (as measured at atmospheric pressure) was 6.6 to 5.9 at CO2 pressures≦516 kPa and 5.7 when treated at pressures≧516 kPa and 20° C. The pH of the treated and control milk samples, when treated at 10° C., was 5.5 at CO2 pressures≦516 kPa and 5.8 when treated at pressures≧516 kPa.

[4] = tested on: SPC (total microbial growth) in whole raw milk; test: SPC of bulk raw milk in CO2 pressurized tank container (Example 2); format: cell-based; details: bottom of the tank, entire 17 day study
From the text: The apparatus pressurizing and holding raw milk samples consisted of a 5300 U.S. gallon (20,000 liter) food grade, insulated, pressure vessel shipping container of the model HO4 type utilized by Agmark Foods, Inc. Compressed and filtered CO2 from high pressure tank was used, including a Praxair inline 3A sparger. The Agmark shipping container was sanitized on Aug. 4, 2004. The following day, the tank was pre-chilled with a spray of CO2 and filled with 3,291 U.S. gallons of fresh raw milk obtained from the Cornell University Teaching and Research Center Bovine Heard (T&R Center; Dryden, N.Y.) on Aug. 5, 2004. The raw milk from the T&R Center was received less than 12 hours after milking and was introduced from a holding tank into the pressure vessel at a temperature of approximately 1 to 2° C. Prior to filling the pressure vessel, the vessel was sealed and pressurized with carbon dioxide to a pressure of 25 psi (172.5 kPa). Milk was pumped into the tank through the discharge valve at the rear of the tank and CO2 was injected into the flow of the milk with an inline Praxair 3A sparger at a rate sufficient to infuse approximately 2000 parts per million at a gas flow rate of approximately 16 cubic feet per minute. The raw milk was pumped into the vessel at a flow rate of 70 to 80 gallons per minute with flowing CO2 under a 40 psi line pressure and 25 psi tank pressure. […]

[5] = tested on: milk microbiota (SPC, aerobic microorganisms); details: cited from earlier work; for extension in storage life: 30 ppm CO2 (King and Mabbitt, 1982)
Lactobacillus spp. [6] = details: 30 and 45 ppm CO2 (Espie and Madden, 1997); cited from earlier work

## O=C=O [CO2, carbon dioxide]
[1]; 68 to 689 kPa
  levels of gram-negative non-fermenters compared to untreated controls: reduced at all pressures
[1]; 689 kPa
  decrease of gram-negative non-lactose fermenting bacteria compared to initial counts: 0.64 log10 cfu/ml
Lactobacillus spp. [2]
  populations of Lactobacillus after CO2 pressure treatment: decreased
[3]; 68 kPa
  pH after treatment (6.6 before treatment): 5.9
[3]; 344 kPa
  pH after treatment (6.6 before treatment): 5.8
[3]; 516 kPa
  pH after treatment (6.6 before treatment): 5.5
[3]; 689 kPa, 4° C., end of days 4, 6, 8 and 9
  pH of treated milk (initial value 6.6): 5.5
[3]; CO2 pressures ≦516 kPa
  pH of milk samples: 5.5
[3]; pressures ≧516 kPa
  pH of milk samples: 5.8
[3]; pressures ≧516 kPa, 20° C.
  pH of milk samples (measured at atmospheric pressure): 5.7
[4]
  bacterial levels versus quality limit of 5 log cfu/ml SPC: did not reach the limit
[5]; 20-30 pmm dissolved CO2, 4 days at 7° C. (Mabbitt, 1982)
  SPC lower compared to control milk: 3 log10 cfu/ml
[5]; 3997 kPa (or 5800 psi) CO2, ≧40° C., 30 min (Calvo and Bacones, 2001)
  decrease in bulk raw milk microbiota: 2 log10 cfu/ml
[5]; 6044 kPa CO2, 45° C., 24 h (Erkman, 2000)
  reduction in aerobic microorganisms in whole milk: 6 log10 cfu/ml
[5]; 14598 kPa CO2, 25° C., 5-h (Erkman, 1997)
  reduction: 8 log10 cfu/ml
[5]; addition of CO2, storage at 6.7° C. for 48 h (Shipe et al., 1978)
  reduction of bacterial growth in raw milk: 50%
[5]; good quality milk (10^3 cfu/ml)
  extension in storage life: 3 days
[5]; poor quality milk (10^5 cfu/ml)
  extension in storage life: 1.2 days
Lactobacillus spp. [6]
  effect on the growth of Lactobacillus spp.: no effect

Source: patent US8563067B2, “Extended shelf life and bulk transport of perishable organic liquids with low pressure carbon dioxide” (Cornell Research Foundation, Inc., priority 2004, dated 2013)
